Test results published in patent US20210030725A1, “RESTORATION OF TRANSMEMBRANE COPPER TRANSPORT” (The Board of Trustees of the University of Illinois, priority 2018, published 2021).

Assays:
[1] = tested on: iron transporter-deficient yeast missing the FetFtr1 transport complex; assay: Growth rescue of iron transporter-deficient yeast; format: cell-based, Saccharomyces cerevisiae; settings: respiratory and non-permissive copper conditions
[2] = tested on: Δctr1Δctr3 yeast missing the passive copper transporters Ctr1Ctr3; assay: Growth rescue of Δctr1Δctr3 yeast; format: cell-based, Saccharomyces cerevisiae; settings: respiratory and non-permissive conditions, copper dependent, maximum at intermediate hinokitiol concentrations
Experimental: Growth rescue in yeast was performed using 10 μM hinokitiol in SD media in a 96-well plate unless otherwise noted. Wild type and DELctr1DELctr3 yeast strain controls treated with vehicle (DMSO) or hinokitiol were performed under identical conditions using a normal iron-containing, no-copper containing SD media, supplemented with 1.0 μM CuCl2. Yeast were grown overnight in YPD media and diluted at an OD600 of 0.1 in SD media, diluted 10-fold, and incubated at 30° C. with continuous shaking (200 rpm). The OD600 was obtained 48 hours after inoculation unless otherwise noted. Small molecule dose-response with hinokitiol was determined by addition of the small molecule (40× stock solution in DMSO) to give the indicated final concentrations. Copper dose-response studies were performed in low copper SD media without CuCl2 containing the indicated concentrations of hinokitiol (from a 40× stock solution in DMSO). For dose-dependent hinokitiol-promoted rescue at increasing dosages of CuCl2, SD media was made containing the indicated concentrations of CuCl2 from 1000× CuCl2 stocks before adding hinokitiol (40× stock solution in DMSO) to give the indicated final concentrations. […]

[3] = tested on: DELccc2 yeast strain missing the intracellular ATP-driven copper pump CCC2; assay: Growth rescue of DELccc2 yeast on solid media; format: cell-based
Experimental: Growth rescue in yeast was performed on SD-agar plates in 50 mM MES/Tris buffer at pH=7.0 containing 2% agarose gel, and 10 μM hinokitiol (from 40× stock in DMSO). Wild type and DELccc2 yeast strain controls treated with vehicle (DMSO) were performed under identical conditions using a no-copper containing SD media supplemented with 0.5 μM CuCl2 in the absence of hinokitiol. Yeast were grown overnight in YPD media and diluted to an optical density at 600 nm (OD600) of 1.0 in low copper SD media before 10-fold serial dilution and inoculation of these yeast suspensions (10 μL per dot) onto the low copper SD-agar plates described above containing either DMSO vehicle or hinokitiol (10 μM from 40× DMSO stock). For disc diffusion assays, yeast were grown overnight in YPD media and diluted to an OD600=0.1 in low copper SD media and streaked onto low copper SD-agar plates containing 0.5 μM CuCl2. Disc diffusion assays were performed using either DMSO or 10 mM stock solutions (in DMSO) of hinokitiol on low copper SD-agar plates containing 0.5 μM CuCl2 streaked with the appropriate yeast strain (from OD600=0.1 in low copper SD media). Images were taken 48 hours after inoculation and incubation at 30° C. unless otherwise noted. […]

[4] = UV-vis titration with copper (II) chloride; format: binding
[5] = tested on: DELccc2 yeast strain missing the intracellular ATP-driven copper pump CCC2; assay: Growth rescue of DELccc2 yeast in liquid culture; format: cell-based
Experimental: Growth rescue in yeast was performed using 10 μM hinokitiol in SD media in a 96-well plate unless otherwise noted. Wild type and DELccc2 yeast strain treated with vehicle (DMSO) or hinokitiol were performed under identical conditions using a normal iron-containing, no-copper containing SD media, this time supplemented with 1.5 or 2 μM CuCl2. Yeast were grown overnight in YPD media and diluted at an OD600 of 0.1 in SD media, diluted 10-fold, and incubated at 30° C. with continuous shaking (200 rpm). The OD600 was obtained 48 hours after inoculation unless otherwise noted. Small molecule dose-response with hinokitiol was determined by addition of the small molecule (40× stock solution in DMSO) to give the indicated final concentrations. Copper dose-response studies were performed in low copper SD media without CuCl2 containing the indicated concentrations of hinokitiol (from a 40× stock solution in DMSO). For dose-dependent hinokitiol-promoted rescue at increasing dosages of CuCl2, SD media was made containing the indicated concentrations of CuCl2 from 1000× CuCl2 stocks before adding hinokitiol (40× stock solution in DMSO) to give the indicated final concentrations. […]

[6] = Copper (II) transport across liposomal membranes, hinokitiol vs water-soluble chelators; settings: relative to controls
[7] = Hinokitiol-promoted release of divalent metals from POPC liposomes (PhenGreen assay); settings: hinokitiol 10 μM
Experimental: Hinokitiol-promoted release of different divalent metals from POPC liposomes was performed by tracking the quenching of PhenGreen (Fisher P14312) similar to previously reported. Liposomes were prepared as described above with an internal buffer consisting of either 10 mM ascorbate in a 5 mM MES/Tris buffer at pH=7.0 (for Fe^2+), 10 mM citrate in a 5 mM MES/Tris buffer at pH=7.0 (for Cu^2+), or a 5 mM MES/Tris buffer at pH=7.0 (for Mn^2+, Co^2+, and Zn^2+). In all cases, liposomes were prepared using 5 mM of either FeCl2, MnCl2, CoCl2, NiCl2, ZnCl2, or CuCl2 added to the internal buffer. […] The fluorescence was monitored with excitation at 500 nm and emission at 530 nm over 1 hour. After one hour, the liposomes were lysed with Triton-X and the fluorescence was recorded. […] The DMSO-treated and hinokitiol-treated liposomes had similar fluorescence quenching levels after lysis. The total amount of metal efflux was determined using standard curves of fluorescence quenching in external buffer with 10 μM PhenGreen and known concentrations of each metal. The t1/2 values were calculated using an asymptotic fit in OriginPro. […] Hinokitiol (10 μM) rapidly promotes the efflux of multiple divalent metals from POPC liposomes as determined by a PhenGreen assay. […] Quantification of metal release was done by comparison of fluorescence quenching to a standard curve for each metal. […]

[8] = Partitioning of chelator:copper complex between octanol and water; format: physicochemical; settings: hinokitiol:copper complex
Experimental: Biophysical experiments were performed to better understand the capacity of hinokitiol to bind and transport copper. […] Unlike the aforementioned water-soluble copper chelators, the hinokitiol:copper complex primarily partitioned into the nonpolar solvents over water (FIG. 4A). To expand, 95% of the hinokitiol:copper complex partitioned into octanol over water as opposed to >85% of the currently available water-soluble chelators partitioned into water over octanol.

[9] = Stoichiometric metal competition, ICP-MS quantification of extracted hinokitiol-bound metal; format: binding; settings: 1 mM each divalent metal, 1 mM hinokitiol, 10 mM Mes/Tris, 1:1 MeOH:H2O, pH 7.0, N=6
Experimental: Hinokitiol binds to and sequesters copper with a greater affinity than any other metal (including iron). Stoichiometric competition experiments with 1 mM of each divalent metal and 1 mM hinokitiol in a 10 mM Mes/Tris buffer in 1:1 MeOH:H2O at pH=7.0. Hinokitiol binds many metals by ICP-MS quantification of extracted hinokitiol-bound metal. The metal in the organic layer was determined to be in the order of Cu>Fe>Mn≈Zn>Co>Ni. ND=Not detected. N=6. (FIG. 2)

CC(C)c1cccc(=O)c(O)c1 [hinokitiol, 2-hydroxy-6-propan-2-ylcyclohepta-2,4,6-trien-1-one]
restoration of yeast growth [1]: unable to restore growth | restoration of yeast growth [2]: dose-dependently restored yeast growth up to wild type control levels | growth rescue [3]: Vigorous rescue | copper binding (complex formation, shift in UV-vis spectra) [4]: readily binds copper | growth rescue [5]: Vigorous rescue | copper (II) transport across liposomal membranes [6]: transported copper (II) across liposomal membranes | transport of MnII from liposomes [7]: unable to transport | share of copper complex partitioned into octanol over water [8]: 95% | order of metal in the organic layer (extracted hinokitiol-bound metal) [9]: Cu>Fe>Mn≈Zn>Co>Ni
